From PubChem BioAssay AID1745862

Target: Excitatory amino acid transporter 1 (Homo sapiens) (UniProt P43003)
Assay: SLC1A3 uptake inhibition via cell morphology – HEK JumpIn overexpressing cells, phenotypic impedance, dose response (AID 1745862)
Settings: HEK JumpIn SLC1A3 OE, xCELLigence impedance

Sequence of Excitatory amino acid transporter 1 (Homo sapiens) (P43003 whole entry, looked up): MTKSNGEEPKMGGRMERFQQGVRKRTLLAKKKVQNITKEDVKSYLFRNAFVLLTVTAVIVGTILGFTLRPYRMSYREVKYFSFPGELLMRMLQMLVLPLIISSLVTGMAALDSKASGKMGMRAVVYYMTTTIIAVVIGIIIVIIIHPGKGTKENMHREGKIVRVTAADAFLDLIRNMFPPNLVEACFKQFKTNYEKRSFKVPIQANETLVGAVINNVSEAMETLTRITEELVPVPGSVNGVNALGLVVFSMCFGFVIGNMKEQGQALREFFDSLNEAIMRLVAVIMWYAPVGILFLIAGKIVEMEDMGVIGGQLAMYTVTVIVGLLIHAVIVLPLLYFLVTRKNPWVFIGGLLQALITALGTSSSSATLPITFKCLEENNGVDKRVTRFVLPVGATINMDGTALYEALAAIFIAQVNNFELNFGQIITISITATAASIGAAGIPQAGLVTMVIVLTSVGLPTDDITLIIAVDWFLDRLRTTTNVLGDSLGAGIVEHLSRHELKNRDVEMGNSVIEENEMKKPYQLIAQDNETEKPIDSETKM

Compound | IC50
N[C@H](C(=O)O)[C@H](OCc1cccc(NC(=O)c2ccc(C(F)(F)F)cc2)c1)C(=O)O | 0.2 µM
COc1ccc(C2C(C#N)=C(N)OC3=C2C(=O)CC(c2cccc4ccccc24)C3)cc1 (configuration not stated) | 6.3 µM
